Results on one compound are retold here after patent US20040143004A1, “Metronomic dosing of taxanes” (priority 2004, published 2004).

For this data set, the system named is endothelial cells in MATRIGEL plugs.

Protocol: LX1 human lung tumor fragments that were maintained by serial subcutaneous passage in athymic (nu/nu) Balb/c mice were implanted subcutaneously as small fragments approximately 0.1 mm^3 in size. Tumor volume doubling time for this tumor in these studies was 2.8 days. When tumors reached the size range of 150-200 mm^3, liquid [sequence] was injected subcutaneously on the side contralateral to the tumor. Treatment was initiated 24 hours later at varying doses and schedules. Prior to implanting, [sequence] is prepared by placing solidified [sequence] on ice overnight at 4 C. in accordance with the method described by Passiniti et al. (Lab. Invest. 1992 67:519-28). At the liquid phase and while on ice, VEGF and bFGF (Peprotech, Inc. Rocky Hill, N.J.) is added to the [sequence] at final respective concentrations of 75 ng/ml and 300 ng/ml. […] These plugs were then processed for paraffin embedding and sectioned at 5 μm thickness followed by staining with hematoxylin and eosin prior to quantitative analysis. The number of endothelial cells in plugs was quantitated using the IMAGEPRO PLUS software (Media Cybernetics, Inc., Silver Spring, Md.) at a magnification of 20×. […]
Angiogenesis is evaluated in these plugs as the number of endothelial cells migrating into plugs from compound treated groups relative to the vehicle treated group.

As for `COC(=O)O[C@@]12CO[C@@H]1C[C@H](O)[C@@]1(C)C(=O)[C@H](OC(C)=O)C3=C(C)[C@@H](OC(=O)[C@H](O)[C@@H](NC(=O)OC(C)(C)C)C(C)(C)C)C[C@@](O)([C@@H](OC(=O)c4ccccc4)[C@H]21)C3(C)C` [Formula I, 3′-tert-butyl-3′-N-tert-butyloxycarbonyl-4-deacetyl-3′-dephenyl-3′-N-debenzoyl-4-O-methoxycarbonyl-paclitaxel], the “dose below MTD at which anti-angiogenic effects are still observed in vivo” value (fold lower than the maximum tolerated dose) is on record as “approximately 13 fold”. The “maximum tolerated dose (MTD)” value (mice, q2dx5 schedule) stood at 60 mg/kg.
